According to patent US4208531A, “Synthetic aminoglycosides” (priority 1976, dated 1980):
Converted amounts (≈) assume the structure as drawn. Read-outs that look alike come from different tables or passages of the source. Blank lines part the entries; values can stand above or below the compound they belong to.

How the values were obtained:
Test in all cases: MIC, Steers agar-dilution method, Mueller-Hinton
Assay type in all cases: cell-based
[1] = system: Escherichia coli R 1513; conditions: R1513, MuellerHinton broth pH 7.2
From the text: (§1) Illustrated below is a table showing the minimal inhibitory concentrations (MIC's) of Kanamycin A together with those of one of the trisaccharides synthesized (Example I) against a variety of Gram-positive and Gram-negative bacteria as obtained by the Steers agar-dilution method with Mueller-Hinton agar medium.
(§2) In vitro activity of Kanamycin A and compound (Example LI). MIC's in
(§3) MuellerHinton broth pH 7.2.

[2] = system: Micrococcus pyogenes aureus 6539 P; conditions: Staphylococcus aureus, AUREUS6539P
From the text: as §1, §2, §3

[3] = system: Proteus mirabilis
From the text: as §1, §2, §3

[4] = system: Proteus morganii; conditions: Morganella morganii
From the text: as §1, §2, §3

[5] = system: Proteus rettgeri; conditions: Providencia rettgeri
From the text: as §1, §2, §3

[6] = system: Pseudomonas aeruginosa D 15
From the text: as §1, §2, §3

[7] = system: Pseudomonas aeruginosa I.A.
From the text: as §1, §2, §3

[8] = system: Pseudomonas aeruginosa s.p.
From the text: as §1, §2, §3

[9] = system: Salmonella sui-pestifer
From the text: as §1, §2, §3

[10] = system: Salmonella tiphymurium
From the text: as §1, §2, §3

[11] = system: Staphylococcus pyogenes Smith A; conditions: Staphylococcus aureus
From the text: as §1, §2, §3

MIC [1]: 32 µg/mL
MIC ([2]; Micrococcus pyogenes aureus 6539 P, MuellerHinton broth pH 7.2, read-out: MIC): 0.4 µg/mL
MIC ([3]; MuellerHinton broth pH 7.2, read-out: MIC): 0.4 µg/mL
MIC ([4]; Proteus morganii, MuellerHinton broth pH 7.2, read-out: MIC): 0.2 µg/mL
MIC ([5]; Proteus rettgeri, MuellerHinton broth pH 7.2, read-out: MIC): 0.2 µg/mL
MIC ([6]; D15, Pseudomonas aeruginosa D 15, MuellerHinton broth pH 7.2, read-out: MIC): 8 µg/mL
MIC ([7]; Pseudomonas aeruginosa I.A., MuellerHinton broth pH 7.2, read-out: MIC): 32 µg/mL
MIC ([8]; Pseudomonas aeruginosa s.p., MuellerHinton broth pH 7.2, read-out: MIC): 16 µg/mL
MIC ([9]; Salmonella sui-pestifer, MuellerHinton broth pH 7.2, read-out: MIC): 32 µg/mL
MIC ([10]; Salmonella tiphymurium, MuellerHinton broth pH 7.2, read-out: MIC): 32 µg/mL
MIC ([11]; Staphylococcus pyogenes Smith A, MuellerHinton broth pH 7.2, read-out: MIC): 0.4 µg/mL
Compound: NCC1OC(OC2CCC(OC3C(N)CC(N)C(O)C3O)OC2CN)CCC1O (stereo not drawn) [Example LI, 4-O-[4-O-(6-amino-2,3,6-trideoxy-α-O-erythro-hexopyranosyl)-6-amino-2,3,6-trideoxy-αO-erythro-hexopyranosyl]-2-deoxystreptamine disulphate]

Compound: NCC1OC(OC2C(N)CC(N)C(OC3OC(CO)C(O)C(N)C3O)C2O)C(O)C(O)C1O (stereo not shown) [Kanamycin A]
MIC [1]: 100 µg/mL (≈ 206 µM)
MIC ([2]; pH 7.2): 0.8 µg/mL (≈ 1.65 µM)
MIC ([3]; pH 7.2): 2 µg/mL (≈ 4.13 µM)
MIC ([4]; pH 7.2): 0.8 µg/mL (≈ 1.65 µM)
MIC ([5]; pH 7.2): 0.4 µg/mL (≈ 0.826 µM)
MIC ([6]; Pseudomonas aeruginosa, D15, pH 7.2): 25 µg/mL (≈ 51.6 µM)
MIC ([7]; Pseudomonas aeruginosa, pH 7.2): 100 µg/mL (≈ 206 µM)
MIC ([8]; Pseudomonas aeruginosa, pH 7.2): 100 µg/mL (≈ 206 µM)
MIC ([9]; Salmonella, pH 7.2): 32 µg/mL (≈ 66 µM)
MIC ([10]; Salmonella, pH 7.2): 100 µg/mL (≈ 206 µM)
MIC ([11]; pH 7.2): 0.8 µg/mL (≈ 1.65 µM)
